For orientation: IC50 means the midpoint of a concentration-inhibition curve.

The values that follow come from article PMC2866470, “Teratogenic Effects of Diatom Metabolites on Sea Urchin Paracentrotus lividus Embryos” (Marine Drugs, 2010).

Where two headings read alike, the source gives them in different places.

The subject of series [1] is Paracentrotus lividus embryos. Description: Embryotoxicity test: inhibition of first cell cleavage in sea urchin embryos. It is filed as in vivo. As to conditions: for Concentration at which arrest (100% blockage) of cell cleavage occurs: circa 90 min after fertilization, 20 °C. As for the experimental part:
(§1) Paracentrotus lividus (Lamarck) sea urchins were collected during the breeding season by SCUBA diving in the Gulf of Naples and transported in an insulated box to the laboratory, within 1 h after collection, and maintained in captivity in well-aerated water at 18 °C in an open circuit. Living organisms were injected with 0.2 mL of 0.2 M acetylcholine (SIGMA-Aldrich, Milan, Italy) through the peribuccal membrane to induce gamete ejection. Spawned eggs were allowed to settle and were washed three times with 0.22 micron filtered sea water (FSW); eggs were then diluted to a final concentration of 3000 eggs mL^−1. Concentrated sperm was collected ‘dry’, mixing samples from at least three different males and stocking undiluted at +4 °C. Sperm mix was diluted 10 μL in 10 mL SW just before insemination and an aliquot of circa 100 μL of this solution was added to 100 mL of egg suspension. At 2–4 min after sperm addition the eggs were checked for successful fertilization and excess sperm were removed by washing the eggs once with FSW.
PUAs and PUFAs were tested on sea urchin early development. […] All concentrations were tested on egg groups collected from three different females. Groups of eggs from the same animals were used as controls. To test the effect of the solvent, other groups of embryos were incubated in 10% methanol, which was the highest concentration of solvent used for incubation experiments. Embryos were kept at 20 °C in a controlled temperature chamber under 12:12 light:dark cycle.
Cleavage inhibition was assessed by counting at least 200 embryos for each well.
Statistical analysis and IC50 calculation were made by using the Prism software (GraphPad software inc. La Jolla, CA, USA).

Series [2] relates to Paracentrotus lividus embryos. The series is described as follows: Embryotoxicity test: percentage of hatched sea urchin larvae after 24 hours. The class given is in vivo. To be noted: for Effect on the transition to swimming blastula / larval stage: in vivo; for Concentration of total inhibition of hatching viability (0% of hatched larvae) / Hatching viability: 24 hours; for Hatching viability: at concentrations of circa 3.0 μM. As for the experimental part: as §1
PUAs and PUFAs were tested on sea urchin early development. […] All concentrations were tested on egg groups collected from three different females. Groups of eggs from the same animals were used as controls. To test the effect of the solvent, other groups of embryos were incubated in 10% methanol, which was the highest concentration of solvent used for incubation experiments. Embryos were kept at 20 °C in a controlled temperature chamber under 12:12 light:dark cycle. […]

Series [3] relates to Sphaerechinus granularis embryos. To be noted: cited from earlier work.
The subject of a further series is Ciona intestinalis. Further details: method as in PMID 12874802. As to conditions: printed equivalent 1.32 μM; cited from earlier work.
In the next series the test system is pelagic copepods. Also noted: method as in ref 28 = [28]; 28 Ianora A Romano G Carotenuto Y Esposito F Roncalli V Buttino I Miralto A Impact of the diatom oxylipin 15S-HEPE on the reproductive success of the copepod Temora stylifera Hydrobiologia 2010 submit. As to conditions: printed equivalent 6.58 μM; cited from earlier work.
Series [4] deals with Paracentrotus lividus embryos and pluteus larvae. The series is described as follows: Teratogenic effect after 48 hours of incubation (abnormalities and mortality of larvae). It is filed as in vivo. The procedure: PUAs were also tested for their teratogenic effect after long term incubations. After 48 hours of incubation with test compounds, the number of abnormalities and mortality were assessed according to Pagano et al.. Embryos at various stages were observed under a light microscope (Zeiss Axiovert 135TV). Pictures were taken using a Zeiss Axiocam connected directly to the microscope.

The next series has as its system early P. lividus embryos. Further details: method as in PMID 12939379. As to conditions: cited from earlier work.
In series [5] the test system is Paracentrotus lividus embryos and pluteus larvae. Description: TUNEL fluorescence labeling of apoptosis in larvae after 48 hours of exposure. It is filed as in vivo. The procedure: P. lividus embryos were incubated as described above in decadienal at concentrations ranging from 1.32 to 6.58 μM for 48 hours. Pluteus larvae were fixed in paraformaldehyde 4% (SIGMA-Aldrich, Milan, Italy) in sea water for 2 hours at room temperature. Fixed sea urchin embryos were washed several times in phosphate saline buffer 10 mM at pH 7.4 (PBS) to remove paraformaldehyde and then incubated for 1 h in a solution of 0.1% Triton X-100 and 0.1% sodium citrate, at 4 °C. Apoptosis was assessed using TdT-mediated dUTP nick end labeling (TUNEL) (Roche Diagnostics) according to manufacturer’s instructions. After washing in PBS containing 1% bovine albumin serum (BSA, Sigma-Aldrich), treated samples were incubated at 37 °C for 90 min in TUNEL solution in a humidified chamber, in the dark. Control embryos were fixed and stained as described above. To obtain TUNEL-positive control samples, embryos were incubated for 10 min in 50 mM Tris-HCl, pH 7.5, 10 mM MgCl2, 0.1% dithiothreitol, containing 250 μg mL^−1 DNase I (grade II from bovine pancreas; Boehringer GmbH, Mannheim, Germany) at room temperature. Negative controls were obtained by incubating embryos in label solution only, as recommended by the manufacturer. […] Pictures were taken using a Zeiss Axiocam connected directly to the microscope.

A short description of series [6]: Decadienal stability in nutrient enriched sea water (f/2 medium), spectrophotometric. The class given is physicochemical. As for the experimental part: Decadienal stock solution was prepared by diluting a known amount of the substance (determined by weight) in methanol. The methanolic solution was further diluted in autoclaved f/2 medium to achieve decadienal concentration ranging from 0.66 to 32.89 μM. A standard curve was generated by reporting the absorbance at 274 nm of decadienal as a function of its concentration (each determination was performed in triplicate).
To verify decadienal stability, solutions were prepared in triplicate at a starting concentration of 8.96 μM in 250 mL f/2 and incubated in a polystyrene culture flask closed with a screw cap. The UV spectrum and absorbance reading at 274 nm were assessed with time. Decadienal concentration was determined on the basis of a standard curve.

In series [7] the test system is Paracentrotus lividus embryos. Also noted: method as in ref 18 = [18]; 18 Sellem F Pesando D Bodennec G El Abed A Girard JP Toxic effects of Gymnodinium cf. mikimotoi unsaturated fatty acids to gametes and embryos of the sea urchin Paracentrotus lividus Water Res 2000 34. As to conditions: P. lividus; cited from earlier work.

In the case of `CCC=CCC=CCC=CCC=CCCCCC(=O)O` [stearidonic acid, 6,9,12,15-octadecatetraenoic acid], in [1] (circa 120 eggs mL−1), the “Concentration at which arrest (100% blockage) of cell cleavage occurs” value was 181 µM. In series [2], the “Effect on the transition to swimming blastula / larval stage” value is listed as “interfered with the transition to the larval stage”.

In the case of `CCCCC/C=C/C=C/C=O` [decadienal, 2-trans,4-trans-decadienal], the IC50 is 3.01 µM in [1] (95% CI = 2.96 to 3.06 μM, circa 120 eggs mL−1); 7.3 µM in series [3] (S. granularis embryos, read-out: IC50 of cleavage inhibition); 1.3 µM in [3] (S. granularis, low egg density, read-out: IC50 of blockage of cell divisions in newly fertilized eggs). For the same molecule, in series [1] (circa 120 eggs mL−1), the “Concentration at which arrest (100% blockage) of cell cleavage occurs” value was found to be 5.26 µM. Further, the “Minimum dose to inhibit 100% of embryo cleavage” value in series [3] (S. granularis embryos) is “about 20 μM”. In the series on Ciona intestinalis, the “Sub-lethal concentration inducing abnormal tadpole larvae” value was 0.2 µg/mL. Moreover, the “Concentration of total inhibition of hatching viability (0% of hatched larvae)” value in series [2] worked out at 3.95 µM. The molecule also had a Hatching viability in series [2] below 50%. In addition, the “Concentration to induce malformations and apoptosis” value in the series with pelagic copepods is 1000 ng/mL. In series [4] (1.32 μM, 48 hours, ± SD), the Abnormal plutei is listed as 11.08% ± 4.4. Besides, the Retarded larvae in series [4] (1.32 μM, 48 hours, ± SD) was 11.64% ± 8.2. In addition, the “Dead and pre-hatching embryos” value in series [4] (2.63 μM, 48 hours, ±22.42 SD) is recorded as “up to 29.4%”. In series [4] (3.95 μM, 48 hours, ± SD), the Dead embryos was 53.7% (±24.7 SD). For the same molecule, the “Embryos not able to survive” value in [4] (5.26 μM, 48 hours, ± SD) is recorded as 85.1% (±24.7 SD). The “Concentration at which embryos were unable to develop beyond the blastula stage” value in [4] (in vivo) is at least 3.95 µM. Also, the “Sub-lethal concentrations that increased abnormal plutei and delayed development” value in series [4] (newly fertilized eggs, 48 hours) is 1.32 to 5.26 µM. Besides, the “Concentration inducing apoptosis relative to the dose required to induce 100% cleavage inhibition” value in the series with early P. lividus embryos is recorded as “five”. Also, the “Number of embryos presenting a high degree of apoptosis (TUNEL)” value in series [5] (1.32 μM) is listed as “more or less the same as in the control”. The “Larvae TUNEL-positive in the entire body” value in series [5] (2.63 μM) was “approximately 80%”. In addition, the “Larvae TUNEL-positive” value in series [5] (3.95 μM) is “almost all of the larvae were positively stained”. Also, the “Decadienal concentration in f/2 medium” value in series [6] (after 24 hours (start of the gradual decrease), 8.96 μM starting concentration) is 7.92 (±0.3 SD) μM; in series [6] (after seven days of incubation, natural light, 20 °C, closed vessel, 8.96 μM starting concentration), 4.63 (±0.017) μM. Besides, the “Change of initial concentration” value in series [6] (after 24 hours, f/2 medium, 8.96 μM starting concentration) was determined as 11.70%. The “Time for which the aldehyde can be detected spectrophotometrically” value in series [6] (f/2 medium) is “up to 14 days”. In addition, the “Time without significant change of the initial concentration” value in [6] (f/2 medium, 8.96 μM starting concentration, closed flask, 20 °C) is “at least six”.

As to `C=CC/C=C/C=C/C=O` [octatrienal, 2-trans,4-trans,7-octatrienal], the “Concentration at which arrest (100% blockage) of cell cleavage occurs” value in series [1] (circa 120 eggs mL−1) is 11.47 µM.

For the molecule `CCCCCCCCCCCCC=O` [tridecanal], in [1] (up to 25 μM, higher concentrations not tested due to solubility problems in sea water), the “Effect on first cleavage” value was “did not interfere with first cleavage”.

With `CCC=CCC=CCC=CCC=CCC=CCC(=O)O` [octadecapentaenoic acid], the “Concentration of total blockage of first cleavage” value in [7] is reported as at least 1 mM.

As for `CCC=CCC=CCC=CCC=CCC=CCC=CCCC(=O)O` [DHA, 4,7,10,13,16,19-docosahexaenoic acid], the “Percentage of embryos that underwent first cleavage” value in series [1] (at 304 μM, 90 min after fertilization) is given as 34%. In [2], the “Effect on the transition to swimming blastula / larval stage” value is “interfered with the transition to the larval stage”.

With `O=C/C=C/C=C\CCCC(=O)O` [9-oxo-nona-5Z,7E-dienoic acid, reference compound], the “Activity on embryo cleavage” value in series [3] (S. granularis embryos) was “not inhibitory”.

As for `CCCCCC=CCC=CCC=CCCCCC(=O)O` [γ-linolenic, 6,9,12-octadecatrienoic acid], the Activity on cleavage entry in [1] (highest concentration tested 359 μM, 90 min after fertilization) was “no activity”. Further, in series [2] (at 360 μM), the “Hatching (percentage of embryos)” value is on record as 50%.

With `CCCCCC=CCC=CCCCCCCCC(=O)O` [linoleic, 9,12-octadecadienoic acid], in [1] (highest concentration tested 357 μM, 90 min after fertilization), the Activity on cleavage result is “no activity”. In addition, the “Hatching (percentage of embryos)” value in [2] (at 357 μM) amounted to 60%.

As for `CC/C=C/C=C/C=O` [heptadienal, 2-trans,4-trans-heptadienal], the “Concentration at which arrest (100% blockage) of cell cleavage occurs” value in [1] (circa 120 eggs mL−1) stood at 27.27 µM. For the same molecule, in [2], the “Concentration of total inhibition of hatching viability (0% of hatched larvae)” value was determined as 11.36 µM and the Hatching viability is listed as above 90%.

Turning to `CC/C=C\C/C=C\C/C=C\C/C=C\C/C=C\CCCC(=O)OC` [EPA methyl-ester], in series [1] (in vivo), the “Activity on cleavage compared with EPA” value is recorded as “drastic reduction in the activity”. Also, the “Concentration of total inhibition of hatching viability (0% of hatched larvae)” value in [2] was 158 µM.

As for `CCC=CCC=CCC=CCC=CCC=CCCCC(=O)O` [EPA, 5,8,11,14,17-eicosapentaenoic acid], the “Concentration at which arrest (100% blockage) of cell cleavage occurs” value in series [1] (circa 120 eggs mL−1) worked out at 331 µM. Further, in series [2], the “Concentration of total inhibition of hatching viability (0% of hatched larvae)” value is given as “approximately 83 μM” and the “Effect on the transition to swimming blastula / larval stage” value was “interfered with the transition to the larval stage”.

Turning to `CCC/C=C/C=C/C=O` [octadienal, 2-trans,4-trans–octadienal], the “Concentration at which arrest (100% blockage) of cell cleavage occurs” value in series [1] (circa 120 eggs mL−1) stood at 16.13 µM. Besides, in series [2], the “Concentration of total inhibition of hatching viability (0% of hatched larvae)” value came out at 8.08 µM and the Hatching viability is listed as above 90%.
